Data published in patent US20260226103A1, “MODIFIED AMINO ACIDS AND USES THEREOF” (priority 2022, published 2026).
Square brackets hold non-standard residues; d marks the D form. Peptide text beside a SMILES is read from it. * marks the point of attachment. X1 = O=C(O)c1cc(NC(=S)*)ccc1-c1c2ccc(=O)cc-2oc2cc(O)ccc12; aIle = CC[C@@H](C)[C@H](N)C(=O)O; dCit = NC(=O)NCCC[C@@H](N)C(=O)O; X2 = N=C(N)c1ccc(C(=O)*)cc1; Dap = NC[C@H](N)C(=O)O; Ahx = NCCCCCC(=O)O; βAla = NCCC(=O)O

Tests used:
HeLa cells [1] = experiment: Cell viability AlamarBlue assay; type: cell-based; conditions: for cytotoxicity / tolerability (in words): HeLa cells, at or up to 100 μM
Protocol: (§1) HeLa, U2OS or HepG2 cells were cultured in 96 well plates (2.6×10^3 cells per well) for 24 h. […] The experiments were performed in triplicate for each concentration. AlamarBlue® was then added to each well (0.5 mM, 10 μL, 10% v/v) and incubated for a further 6 h for HeLa and HepG2 cells and 24 h for U2OS cells. Cells were then analysed using a HIdex plate reader with laser excitation/emission set at 560 nm/595 nm. Fluorescence of untreated cells were used as a 100% viable control, with 1% Triton X used as a negative control, and viability of cells were calculated as a percentage of the control fluorescence values using OriginPro 2019b software.

HeLa cells [2] = experiment: Cellular distribution by confocal microscopy; type: cell-based; conditions: 5 μM fluorescein-tagged CPP, 4 h
Protocol: HeLa cells were cultured in 8 well plates (Ibidi plates) (3.5×10^4 cells per well) for 24 h. […] After 3.5 h incubation, Hoescht 33258 was added at a concentration of 5.6 μM and cells incubated at 37° C. for the final 0.5 h. Cells were removed from the incubator and media removed. Each well was then washed with serum and phenol red free media (2×200 μL) then incubated with 4% formaldehyde in PBS (200 μL) for 20 min at room temperature. After incubation the 4% formaldehyde solution was removed and PBS (200 μL) added to each well. The cells were then imaged using a Leica S8 confocal microscope. Excitation/emission was set at 352 nm/461 nm for Hoescht 33258 imaging and 495 nm/519 nm for FITC labelled peptides. Images were processed using ImageJ software. Images were ‘rolling ball’ averaged across the set for each channel to remove background fluorescence.

HeLa cells [3] = experiment: Cell uptake of FITC-peptides by flow cytometry; type: cell-based; conditions: for time of maximum uptake: 37° C., 1 hr vs 4 hr
Protocol: (§2) HeLa and U2OS cells were maintained in medium consisting of Dulbecco's modified Eagle's medium (DMEM), 10% FBS, 1% L-Glutamine and 1% penicillin/streptomycin at pH 7.4. […] Cells were cultured in a humidified incubator at 37° C. with 5% CO2 atmosphere.
HeLa or U2OS cells were cultured in 24 well plates (4.5×10^5 cells per well) for 24 h. On the day of the experiment, the cells were incubated with 5 μM FITC-peptide in DMEM with 10% FBS at 37° C. or 4° C. for required time. The media was then removed and wells were washed with PBS (2×500 μL per well) and then detached from the plate with TrypLE Xpress (500 μL per well). PBS containing 2% bovine serum albumin (500 μL) was added to each well and cells transferred to 5 mL polystyrene FACS tubes. Cells were centrifuged (5 min, 5000 rpm) and washed with PBS containing 2% bovine serum albumin (2×500 μL) before being suspended in PBS containing 2% bovine serum albumin (1.00 mL per FACS tube).
(§3) Cells were finally analysed on a Thermo fisher Attune NxT flow cytometer with laser excitation/emission set at 490 nm/519 nm and a flow rate of 200 μL min^−1. Flow cytometry data was analysed using FlowJo software with gating set at a range of 51K-285K side scatter and 251K-815K for forward scatter variance for every sample. Median fluorescence intensity values were calculated from the gating range using FlowJo.
(§4) Median fluorescence values reported were normalised by subtracting average background fluorescence at 490 nm/519 nm of a set of untreated cells (ran with every experiment) from the value of each FITC labelled peptide.

[4] = Cell viability AlamarBlue assay; type: cell-based; conditions: human, HeLa cells, 24 h
Protocol: as §1

[5] = pH of 7.4; cited from earlier work
U2OS cells = conditions: U2OS cell line
Protocol: as §2
HeLa or U2OS cells were cultured in 24 well plates (4.5×10^5 cells per well) for 24 h. On the day of the experiment, the cells were incubated with 5 μM FITC-peptide in DMEM with 10% FBS at 37° C. or 4° C. for required time. The media was then removed and wells were washed with PBS (2×500 μL per well) and then detached from the plate with TrypLE Xpress (500 μL per well). PBS containing 2% bovine serum albumin (500 μL) was added to each well and cells transferred to 5 mL polystyrene FACS tubes. […]
as §3, §4

With `CC(C)C[C@H](NC(=O)[C@H](CC(C)C)NC(=O)[C@H](CCCNC(=N)N)NC(=O)[C@H](CCCNC(=N)N)NC(=O)[C@H](CC(C)C)NC(=O)[C@H](CC(C)C)NC(=O)[C@H](CCCNC(=N)N)NC(=O)CCCCCNC(=S)Nc1ccc(-c2c3ccc(=O)cc-3oc3cc(O)ccc23)c(C(=O)O)c1)C(=O)N[C@@H](CCCNC(=N)N)C(N)=O` [Pep-2, FITC-XRLLRRLLR] (HELM PEPTIDE1{[O=C(O)c1cc(NC(=S)[*:2])ccc1-c1c2ccc(=O)cc-2oc2cc(O)ccc12].[O=C(CCCCCN[*:1])[*:2]].R.L.L.R.R.L.L.R.[am]}$$$$V2.0) the “cytotoxicity relative to Pep-1 (in words)” value (HeLa cells [1]; at 100 M (so in the source)) was “displaying cytotoxicity”.
For `CC[C@@H](C)[C@H](NC(=O)[C@H](CC(C)C)NC(=O)[C@@H]1CCCN1C(=O)CCCCCNC(=S)Nc1ccc(-c2c3ccc(=O)cc-3oc3cc(O)ccc23)c(C(=O)O)c1)C(=O)N[C@@H](CC(C)C)C(=O)N[C@@H](CC(C)C)C(=O)N[C@@H](CCCNC(=N)N)C(=O)N[C@@H](CC(C)C)C(=O)N[C@@H](CC(C)C)C(=O)N[C@@H](CCCNC(=N)N)C(=O)NCC(N)=O` [TP-1, FITC-XPLILLRLLRG] ({X1-Ahx}-PL[aIle]LLRLLRG-NH2), the “cellular distribution profile (in words)” value (HeLa cells [2]) was “extensively distributed throughout the cytoplasm” and the “cytotoxicity / tolerability (in words)” value (HeLa cells [1]) was “well tolerated”.
For `CC[C@@H](C)[C@H](NC(=O)[C@H](CC(C)C)NC(=O)[C@@H]1CCCN1C(=O)CCCCCNC(=S)Nc1ccc(-c2c3ccc(=O)cc-3oc3cc(O)ccc23)c(C(=O)O)c1)C(=O)N[C@@H](Cc1ccc(O)cc1)C(=O)N[C@@H](CC(C)C)C(=O)N[C@H](CCCCN)C(=O)N[C@@H](CC(C)C)C(=O)N[C@@H](CC(C)C)C(=O)N[C@H](CCCCN)C(=O)NCC(N)=O` [TP-3, FITC-XPLIYLKLLKG] ({X1-Ahx}-PL[aIle]YL[dK]LL[dK]G-NH2), the “cell uptake relative to TP-2 (in words)” value (HeLa cells [3]; 5 μM FITC-peptide) was “no difference in cell uptake”.
With `CC[C@H](C)[C@H](NC(=O)[C@H](CC(C)C)NC(=O)[C@H](Cc1ccccc1)NC(=O)[C@H](CCC(N)=O)NC(=O)[C@H](Cc1ccc(O)cc1)NC(=O)[C@H](CCCNC(=N)N)NC(=O)[C@H](CCCNC(=N)N)NC(=O)CCNC(=O)[C@H](CCCNC(=N)N)NC(=O)[C@H](CCCNC(=N)N)NC(=O)CCCCCNC(=O)[C@H](CCCNC(=N)N)NC(=O)CCCCCNC(=S)Nc1ccc(-c2c3ccc(=O)cc-3oc3cc(O)ccc23)c(C(=O)O)c1)C(=O)N[C@@H](CCCNC(=N)N)C(=O)NCCC(=O)N[C@@H](CCCNC(=N)N)C(=O)NCCCCCC(=O)N[C@@H](CCCNC(=N)N)C(N)=O` [PiP6, FITC-XRXRRBRRYQFLIRBRXR] ({X1-Ahx}-R[Ahx]RR[βAla]RRYQFLIR[βAla]R[Ahx]R-NH2) the “cellular distribution profile (in words)” value (HeLa cells [2]) was “high level of accumulation within the nucleus”, the “time of maximum uptake” value (HeLa cells [3]; 5 μM FITC-peptide) was 1 h and the viability at 24 h, 30 µM ([4]; 30 μM FITC-peptide) was 15%. The viability at 24 h, 100 µM ([4]; 100 μM FITC-peptide) was 5%.
For `CC[C@@H](C)[C@H](NC(=O)[C@H](CC(C)C)NC(=O)[C@@H]1CCCN1C(=O)CCCCCNC(=S)Nc1ccc(-c2c3ccc(=O)cc-3oc3cc(O)ccc23)c(C(=O)O)c1)C(=O)N[C@@H](Cc1ccc(O)cc1)C(=O)N[C@@H](CC(C)C)C(=O)N[C@H](CCCNC(=N)N)C(=O)N[C@@H](CC(C)C)C(=O)N[C@@H](CC(C)C)C(=O)N[C@H](CCCNC(=N)N)C(=O)NCC(N)=O` [TP-5, FITC-XPLIYLrLLrG] ({X1-Ahx}-PL[aIle]YL[dR]LL[dR]G-NH2), the “cell uptake relative to TP peptides containing L-Arg (TP-1 and TP-2) (in words)” value (HeLa cells [3]; 5 μM FITC-peptide) was “enhanced uptake” and the “cell uptake relative to TP-2 (in words)” value (HeLa cells [3]; 5 μM FITC-peptide) was “further reduction in uptake”.
In the case of `N=C(N)NCCC[C@H](N)C(=O)O` [arginine], the “Log D or c Log D” value [5] is listed as “approximately −3.5”.
With `CC[C@@H](C)[C@H](NC(=O)[C@H](CC(C)C)NC(=O)[C@@H]1CCCN1C(=O)CCCCCNC(=S)Nc1ccc(-c2c3ccc(=O)cc-3oc3cc(O)ccc23)c(C(=O)O)c1)C(=O)N[C@@H](Cc1ccc(O)cc1)C(=O)N[C@@H](CC(C)C)C(=O)N[C@@H](CCCNC(=N)N)C(=O)N[C@@H](CC(C)C)C(=O)N[C@@H](CC(C)C)C(=O)N[C@@H](CCCNC(=N)N)C(=O)NCC(N)=O` [TP-2, FITC-XPLIYLRLLRG] ({X1-Ahx}-PL[aIle]YLRLLRG-NH2) the “cellular distribution profile (in words)” value (HeLa cells [2]) was “extensively distributed throughout the cytoplasm” and the “cytotoxicity / tolerability (in words)” value (HeLa cells [1]) was “well tolerated”.
With `CC[C@@H](C)[C@H](NC(=O)[C@H](CC(C)C)NC(=O)[C@@H]1CCCN1C(=O)CCCCCNC(=S)Nc1ccc(-c2c3ccc(=O)cc-3oc3cc(O)ccc23)c(C(=O)O)c1)C(=O)N[C@@H](Cc1ccc(O)cc1)C(=O)N[C@@H](CC(C)C)C(=O)N[C@H](CCCNC(N)=O)C(=O)N[C@@H](CC(C)C)C(=O)N[C@@H](CC(C)C)C(=O)N[C@H](CCCNC(N)=O)C(=O)NCC(N)=O` [TP-4, FITC-XPLIYLCitLLCitG] ({X1-Ahx}-PL[aIle]YL[dCit]LL[dCit]G-NH2) the “cell uptake relative to TP-2 (in words)” value (HeLa cells [3]; 5 μM FITC-peptide) was “reduction in cellular uptake”.
In the case of `N=C(N)NCCC[C@H](NC(=O)[C@H](CCCNC(=N)N)NC(=O)[C@H](CCCNC(=N)N)NC(=O)[C@H](CCC(N)=O)NC(=O)[C@H](CCCNC(=N)N)NC(=O)[C@H](CCCNC(=N)N)NC(=O)[C@H](CCCCN)NC(=O)[C@H](CCCCN)NC(=O)[C@H](CCCNC(=N)N)NC(=O)CCCCCNC(=S)Nc1ccc(-c2c3ccc(=O)cc-3oc3cc(O)ccc23)c(C(=O)O)c1)C(N)=O` [Tat, FITC-XRKKRRQRRR], the “cellular distribution profile (in words)” value (HeLa cells [2]) is reported as “accumulating in puncta”, the “time of maximum uptake” value (HeLa cells [3]; 5 μM FITC-peptide) is reported as 1 h and the “cytotoxicity / tolerability (in words)” value (HeLa cells [1]) is reported as “moderate levels of toxicity”.
With `CC[C@@H](C)[C@H](NC(=O)[C@H](CC(C)C)NC(=O)[C@@H]1CCCN1C(=O)CCCCCNC(=S)Nc1ccc(-c2c3ccc(=O)cc-3oc3cc(O)ccc23)c(C(=O)O)c1)C(=O)N[C@@H](Cc1ccc(O)cc1)C(=O)N[C@@H](CC(C)C)C(=O)N[C@@H](CNC(=O)c1ccc(C(=N)N)cc1)C(=O)N[C@@H](CC(C)C)C(=O)N[C@@H](CC(C)C)C(=O)N[C@@H](CNC(=O)c1ccc(C(=N)N)cc1)C(=O)NCC(N)=O` [Am-TP-2, FITC-XPLIYLAmLLAmG] ({X1-Ahx}-PL[aIle]YL[Dap](X2)LL[Dap](X2)G-NH2) the “cellular distribution profile (in words)” value (HeLa cells [2]) was “cytoplasmic distribution profile”, the “uptake trend (in words)” value (U2OS cells) was “enhanced uptake” and the “decrease in cellular uptake at 4° C. relative to 37° C.” value (HeLa cells [3]) was 30 fold. The “uptake at 4 hr incubation relative to 1 hr (in words)” value (HeLa cells [3]) was “enhanced uptake” and the “increase in uptake relative to TP-2” value (HeLa cells [3]; 5 μM FITC-peptide) was 4 fold.
